Source: PubChem BioAssay (NCI)
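GI50 marks 50% less growth. TGI: concentration producing complete growth inhibition.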

Experiments:
Assay in all cases: inhibition of tumour cell growth, NCI panel, 384-well format
NCI-H322M lung = test system: NCI-H322M lung
RXF 393 renal = test system: RXF 393 renal
HCT-15 colon = test system: HCT-15 colon
HCC-2998 colon = test system: HCC-2998 colon
SNB-19 CNS = test system: SNB-19 CNS
OVCAR-4 ovarian = test system: OVCAR-4 ovarian
BT-549 breast = test system: BT-549 breast
HL-60(TB) leukemia = test system: HL-60(TB) leukemia
MDA-MB-231 breast = test system: MDA-MB-231 breast
U251 glioblastoma = test system: U251 glioblastoma
HT29 colon = test system: HT29 colon
SF-539 CNS = test system: SF-539 CNS
NCI-H23 lung = test system: NCI-H23 lung

SMILES	GI50 (NCI-H322M lung) [µM]	TGI (NCI-H322M lung) [µM]	GI50 (RXF 393 renal) [µM]	TGI (RXF 393 renal) [µM]	GI50 (HCT-15 colon) [µM]	TGI (HCT-15 colon) [µM]	GI50 (HCC-2998 colon) [µM]	TGI (HCC-2998 colon) [µM]	GI50 (SNB-19 CNS) [µM]	TGI (SNB-19 CNS) [µM]	GI50 (OVCAR-4 ovarian) [µM]	TGI (OVCAR-4 ovarian) [µM]	GI50 (BT-549 breast) [µM]	TGI (BT-549 breast) [µM]	GI50 (HL-60(TB) leukemia) [µM]	TGI (HL-60(TB) leukemia) [µM]	GI50 (MDA-MB-231 breast) [µM]	TGI (MDA-MB-231 breast) [µM]	GI50 (U251 glioblastoma) [µM]	TGI (U251 glioblastoma) [µM]	further results
CC(=O)OC[C@H]1O[C@@H](n2ccc(=O)[nH]c2=O)[C@H](OC(C)=O)[C@@H]1OC(C)=O	> 100	> 100	> 100	> 100	> 100	> 100	> 100	> 100	> 100	> 100	> 100	> 100	> 100	> 100	> 100	> 100	> 100	> 100	> 100	> 100	GI50 (HT29 colon): > 100 µM; TGI (HT29 colon): > 100 µM; GI50 (SF-539 CNS): > 100 µM; TGI (SF-539 CNS): > 100 µM; GI50 (NCI-H23 lung): > 100 µM; TGI (NCI-H23 lung): > 100 µM
C#Cc1cccc(Nc2ncnc3cc(OCCOC)c(OCCOC)cc23)c1	0.193	1.66	7.83	> 27.3	4.58	> 100	48.4	> 100	> 100	> 100	32	> 100	14.9	> 100	6.29	> 43.1	> 46.6	> 100	43.4	> 100	GI50 (HT29 colon): > 90.8 µM; TGI (HT29 colon): > 100 µM; GI50 (SF-539 CNS): 39.3 µM; TGI (SF-539 CNS): > 100 µM; GI50 (NCI-H23 lung): 25.2 µM; TGI (NCI-H23 lung): > 100 µM
